The source of these data is patent US20250288583A1, “Treatment of Mucus Hypersecretion” (priority 2024, published 2025).

For data set [1] the following is noted: human volunteers; cited from earlier work.
For data set [2], the system named is ostiomeatal complex. As to the kind of experiment: Case studies: nebulized cooling agent in subjects with rhinitis and rhinosinusitis. Conditions: NasoNeb delivery in subjects with rhinosinusitis. The data set is classed as in vivo, human. The source says: Eight subjects with rhinitis and rhinosinusitis volunteered to test cooling agents delivered with the NasoNeb® nebulizer (FIG. 3). The results were clear, robust, and evident. No statistical analysis was necessary. In a 3 to 5-day course of nebulization t.i.d., all subjects reported the ability to manage and control stuffed-up breathing in their activities. All reported comfortable sleep. The sounds of sniffling and congestion of the nose (“sniffles”), snorting, or gurgling were still present, but to a lesser degree. The subject felt it was easier to blow out liquids from the nasal cavity onto a tissue, and the volume and frequency of blowing decreased. Viscous yellow mucus was less in volume and density. The number of wipes deposited daily into a waste basket decreased by >50%. The subjects-were cheerful and enthusiastic because nasal discomfort was under control. As one subject remarked: “The stuffed-up nose problem is now history!” Severat of these cases are reported below as “Case Studies.”
The subject was given a NasoNeb® nebulizer (unavailable in China) and five individual bottles containing 15 mL of a 1% GlyOiPr solution (suspended in 2% Tween 80, 5% ethanol, and 92% water). They were shown how to load the NasoNeb canister with about 2 mL of liquid and activate the device for a 3-second dose into each nostril. The recommended dosage was three times a day, starting in the morning and at about 6-hour intervals, and for five days.
The subject agreed to using the NasoNeb nebulizer with a cooling agent. They were given a NasoNeb nebulizer and three bottles, each containing 15 ml of a 1% GlyOiPr solution (suspended in 2% Tween 80, 5% ethanol, and 92% water). They were shown how to load the NasoNeb canister with about 2 mL of liquid and activate the device for a 3-second dose into each nostril. The recommended dosage was three times a day, starting in the morning and at about 6-hour intervals, and for five days. After a 5-day trial, the subject noted a significant improvement in sleep and comfortable breathing. […] Their headaches were gone, and their appetite improved. They were advised to continue using the Nebulizer/coolant for another week and then on an as-needed basis. Their family has noticed that the subject has become less withdrawn, more engaging, and interested in their surroundings.
The subject volunteered for a trial with GlyOiPr. They were given a NasoNeb® machine and a plastic squeeze bottle containing 50 mL of GlyOiPr at 3 mg/mL suspended in 1% ethanol/2% polysorbate 80. They learned how to load the canister and activate the pump. Then, they were instructed to rinse their nose thoroughly first thing in the morning and then use the Nebulizer at 5 sec per nostril to deliver the solution. The procedure was to be repeated at 2 hours and 5 hours later to total three daily activations. The subject was interviewed after dosing for three days. They said breathing was much easier at night after the dosing, and they slept well. Nasal secretions were still present but less in volume. […] They were encouraged to use the Nebulizer as needed but not to exceed three daily doses. Three weeks after the start of the experiment, they reported that they were in complete control of their rhinitis. They would do a single dose at night before sleep and one in the morning when needed. They no longer felt congested, and the headaches were gone. The slimy phlegm in the nostrils was gone, and crusting was absent. Their nose felt clean. Their social life improved.
Their main complaint was episodes at night when they would wake up and not be able to breathe comfortably. Sleep apnea and lung disorders were ruled out, and the diagnosis was rhinosinusitis. This was confirmed by a computerized tomography scan and endoscopic examination by a qualified ENT specialist. They agreed to test the preferred embodiments GlyOnPr, GlyOiPr, D-Ala-OnPr, and D-Ala-OiPr systematically, one after the other.

A further data set concerns oropharyngeal surface. As to the kind of experiment: Bioassay on oropharyngeal surface. The data set is classed as in vivo, human. The note with it: Table 7; grades 0, ++ without key. The source says: (§1) Cooling agents have been assayed in various ways depending on intended use. For example, for the skin the test substance can be applied on philtrum skin, using descriptions of coolness on a scale of 0 to 3. For the ocular surface, the active ingredient can be applied to the closed eyelids using a wipe. In the oral cavity, drug applications are on the posterior dorsal surface of the tongue. For the oropharyngeal surface, the cooling agent may be applied as an orally disintegrating tablet. The ability of a cooling agent to antagonize a noxious stimuli may also be tested, using nociception from citric acid or chili pepper sauce. Responses are usually measured using a Visual Analog Scale with a numerical rating. For nasal responses, however, such procedures have not been standardized. Some endpoints to consider are open and comfortable breathing, the presence or absence of sniffles, and the secretion of phlegm.

The next data set relates to philtrum skin. Put plainly: Cooling duration bioassay on philtrum skin. It counts as in vivo, human.
Description: (§2) FIG. 1. Comparison of cooling duration of various p-menthanecarboxamide analogs on philtrum skin versus ocular margins. The philtrum skin is keratinized, but the ocular margins are not. The test substances numbered 1 to 11 are: D-Ala-OiPr, Gly-OiPr, D-Ala-OEt, D-Ala-OMe, D-Ala-GlynPr, GlynPr, D-Ala-OnBu, GlynBu, GlyOEt, L-Ala-OEt, and N-Me-D-Ala-OEt, respectively. Two outliers (1 and 2) were identified as preferred embodiments because they preferentially cool the ocular margins. The nasal cavity surfaces like the ocular margins are not keratinized.
as §1

The test system of the next data set is oral cavity. Put plainly: Chili-pepper sauce test (oral cavity). Conditions: Table 6; grades 0, +, ++ without key. Also noted: scale not given here. It counts as in vivo, human.
Description: as §1

The next data set relates to ocular margins. Put plainly: Cooling duration bioassay on eyelids/ocular margins. It counts as in vivo, human.
Description: as §2, §1

A further data set deals with nasal cavity. Put plainly: Nebulizer screening of TRPM8 agonists for sensations in the nasal cavity. It counts as in vivo, human. The note with it: NasoNeb nebulizer; for Sensory effects after delivery into the nasal cavity: 3 to 5 sec per nostril. On the procedure:
Formulations for nebulization with NasoNeb® used a standard recipe of (Table 8): 1% of the active ingredient (1 to 10 mg/mL), 2% Tween 80 (Polysorbate 80), 1 to 5% ethanol, and made up to 100% with water. The mixture is centrifuged in a FlackTek, Inc., Speedmixer for at least 10 min at 3000 rpm. The Speedmixer spins the sample in 3 dimensions. The result is a white homogeneous liquid suspension with some of the solids now dissolved. For dosing, ˜2 to 3 mL is loaded into the canister of the nebulizer. The nebulizer nozzle tip is placed in the nostril and activated by pressing a button for 3 to 5 sec using a clock timer. […] For D-Ala-OiPr a 5-sec activation will deliver 2*0.73 mL*2 mg/ml, or a total dose of 3 mg per nose. The nasal cavity is relatively tolerant to exogenous agents with irritant properties, as many rinses are used for rhinitis and sinusitis. For some p-menthanecarboxamide analogs, a 2% (20 mg/mL) solution is possible and contemplated. An ideal agent reproduces a comfortable cooling or sensations of negative heat flux in the nasal cavity. […] Heat flux refers to the rate of heat transfer per unit area. The sinonasal cavity mucosa differs from philtrum skin and ocular margins in histology, so the choice of the right molecule must be made by experiment. The TRPM8 agonists were chosen for screening using a nebulizer for delivery. The NasoNeb system is powerful and effective for the OMC (FIG. 3). The delivery time per nostril in three to five seconds. […] These parameters were estimated in the initial trials: • Onset and offset of cooling sensations in the nasal cavity. • The intensity and quality of the cooling sensations in the nasal cavity. • Presence of effects such as sneezing or cough after dosing. • Degree of nasal stuffiness on a scale of 0 to 5. • Degree of rhinorrhea and phlegm in nasal secretions. • Questions regarding comfort and sleep at night.

The conditions of data set [3]: see Table 8, Wei U.S. Pat. No. 8,258,320; cited from earlier work.
Data set [4] concerns ostiomeatal complex. As to the kind of experiment: Case study 6: WS-12 nebulization for dry mouth of obstructed breathing. The data set is classed as in vivo, human. The source says: As hypersecretion of mucus was not the principal event, it was decided that a long-acting p-menthanecarboxamide, WS-12, might work well for the dry mouth. WS-12 was first discovered by the applicant to be a potent TRPM8 receptor agonist (Reynolds and Polakis, U.S. Pat. No. 7,893,072), and they supplied this reagent for testing and publications [see Bödding et al. (Cell Calcium. 42:618-28, 2007), and Sherkheli (J. Pharm. Pharmaceu. Sci. 13:242-53, 2010)]. WS-12 has weak cooling effects on the skin. WS-12 was later approved as a food additive (FEMA) for comestibles such as chewing gum. WS-12 is available online for about $USD 15 per 100 g. WS-12 was prepared at 10 mg/ml in 1% ethanol and 2% polysorbate 80 suspensions for a 5-see nebulization using the NasoNeb® apparatus in a volunteer subject and administered once before sleep.
The subject now uses the WS-12 on an occasional as-needed basis. The nasal polyps are still present upon endoscopic examination. The WS-12 chemical structure is ideal for use in obstructed breathing because it has an aryl moiety that increases lipophilicity (higher octanol-water partition coefficient). Lipophilicity increases retention in the nasal mucosa; thus, its action is long-lasting. […] Its actions are more gentle, with a mild coolness on the nasal surfaces. […]

Data set [5] has as its system goblet cells of human nasal epithelium. Conditions: Liu et al., 2017; cited from earlier work.
For a further data set, the target named is T1, TRPA1 (Homo sapiens, UniProt O75762).
T1 construct: expressed in transfected cells
T1 sequence (O75762 whole entry, species assumed): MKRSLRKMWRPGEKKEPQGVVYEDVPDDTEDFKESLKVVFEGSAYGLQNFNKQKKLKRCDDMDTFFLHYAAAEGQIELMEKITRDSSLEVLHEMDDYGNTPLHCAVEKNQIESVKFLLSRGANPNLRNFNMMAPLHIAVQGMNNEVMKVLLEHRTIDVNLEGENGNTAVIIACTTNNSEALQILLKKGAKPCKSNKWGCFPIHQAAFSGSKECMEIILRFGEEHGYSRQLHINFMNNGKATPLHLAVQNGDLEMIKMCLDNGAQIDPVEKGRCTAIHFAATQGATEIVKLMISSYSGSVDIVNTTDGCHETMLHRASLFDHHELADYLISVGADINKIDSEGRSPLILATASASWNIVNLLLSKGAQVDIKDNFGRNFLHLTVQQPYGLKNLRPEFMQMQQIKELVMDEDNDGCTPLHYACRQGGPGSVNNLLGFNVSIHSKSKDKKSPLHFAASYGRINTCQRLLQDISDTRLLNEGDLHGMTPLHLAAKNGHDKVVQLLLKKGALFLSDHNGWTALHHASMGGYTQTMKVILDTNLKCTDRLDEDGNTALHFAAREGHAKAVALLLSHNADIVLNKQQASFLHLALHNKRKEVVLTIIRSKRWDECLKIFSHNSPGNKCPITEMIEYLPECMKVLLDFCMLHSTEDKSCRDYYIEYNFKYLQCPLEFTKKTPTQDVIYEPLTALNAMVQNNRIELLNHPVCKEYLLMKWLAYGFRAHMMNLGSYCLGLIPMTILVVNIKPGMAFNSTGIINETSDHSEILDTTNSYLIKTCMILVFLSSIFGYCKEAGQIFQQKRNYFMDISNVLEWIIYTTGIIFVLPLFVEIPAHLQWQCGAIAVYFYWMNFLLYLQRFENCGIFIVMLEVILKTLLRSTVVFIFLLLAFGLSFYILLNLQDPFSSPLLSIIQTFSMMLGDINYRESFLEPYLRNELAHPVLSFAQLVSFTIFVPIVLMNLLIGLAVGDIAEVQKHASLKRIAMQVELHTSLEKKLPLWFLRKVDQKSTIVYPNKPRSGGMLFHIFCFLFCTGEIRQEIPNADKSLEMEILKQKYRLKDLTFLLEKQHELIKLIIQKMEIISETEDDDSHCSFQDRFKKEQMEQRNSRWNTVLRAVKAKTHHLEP
Conditions: Karashima et al., 2007; cited from earlier work.

The target of another data set is T2, hTRPM8 channel (Homo sapiens, UniProt Q7Z2W7).
T2 construct: host or cells: CHO cells
T2 sequence (Q7Z2W7 whole entry): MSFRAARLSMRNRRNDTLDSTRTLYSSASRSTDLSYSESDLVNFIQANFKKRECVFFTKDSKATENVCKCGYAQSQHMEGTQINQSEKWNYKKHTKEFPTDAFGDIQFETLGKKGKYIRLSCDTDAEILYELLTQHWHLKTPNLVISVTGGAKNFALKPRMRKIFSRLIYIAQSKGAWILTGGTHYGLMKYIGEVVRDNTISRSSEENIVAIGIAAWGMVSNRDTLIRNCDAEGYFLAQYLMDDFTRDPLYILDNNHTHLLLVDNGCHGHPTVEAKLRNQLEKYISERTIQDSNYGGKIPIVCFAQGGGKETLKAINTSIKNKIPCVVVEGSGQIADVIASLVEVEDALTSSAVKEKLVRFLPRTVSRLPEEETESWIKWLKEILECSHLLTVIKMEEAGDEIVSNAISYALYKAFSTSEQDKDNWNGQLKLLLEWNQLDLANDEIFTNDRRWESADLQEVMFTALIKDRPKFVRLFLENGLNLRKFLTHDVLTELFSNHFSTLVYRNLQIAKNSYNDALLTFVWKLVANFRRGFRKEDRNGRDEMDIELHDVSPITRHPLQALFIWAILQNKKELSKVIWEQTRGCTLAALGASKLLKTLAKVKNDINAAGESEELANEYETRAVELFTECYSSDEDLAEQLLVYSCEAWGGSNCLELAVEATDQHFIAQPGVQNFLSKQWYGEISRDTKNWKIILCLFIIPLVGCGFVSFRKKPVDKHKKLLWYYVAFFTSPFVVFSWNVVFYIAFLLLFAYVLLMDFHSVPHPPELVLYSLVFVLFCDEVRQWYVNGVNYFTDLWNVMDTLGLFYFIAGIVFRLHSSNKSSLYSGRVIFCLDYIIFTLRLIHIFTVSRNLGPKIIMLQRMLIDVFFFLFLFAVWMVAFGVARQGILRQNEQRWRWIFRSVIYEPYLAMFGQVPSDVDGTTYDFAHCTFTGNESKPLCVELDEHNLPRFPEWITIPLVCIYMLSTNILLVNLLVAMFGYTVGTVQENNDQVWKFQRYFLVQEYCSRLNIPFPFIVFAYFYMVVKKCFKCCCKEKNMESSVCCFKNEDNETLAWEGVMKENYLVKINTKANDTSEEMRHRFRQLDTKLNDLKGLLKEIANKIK
Put plainly: TRPM8 receptor assay, calcium entry (Fluo-8, FLIPR) in transfected CHO cells. The data set is classed as cell-based. Conditions: FIG. 5. The source says:
FIG. 4. Agonist activities of TRPM8 analogs. […] The relative fluorescence (RF) unit on the ordinate represents calcium entry into transfected cells. […] The structures of these compounds are in Table 4.
The applicant has synthesized and examined a series of p-menthanecarboxamides conjugated to amino acid esters. […] This class of molecules is called N-alkylcarbonyl-amino acid esters. GlyOiPr is a p-menthanecarboxamide conjugate of glycine isopropyl (iPr) ester. It is similar in structure to WS-5, a cooling agent used as a food additive. WS-5 is the p-menthane-glycine ethyl (Et) ester, or GlyOEt. […] These in vitro effects were measured in CHO cells transfected with the hTRPM8 channel. Receptor activity was quantified using a Fluo-8 calcium kit and a Fluorescence Imaging Plate Reader ([…]™).

The structures appear in SMILES notation.

`COc1ccc2c(c1)n(CCN)c(=O)n2C(=O)[C@@H]1C[C@H](C)CC[C@H]1C(C)C.Cl` [D-2363]: in data set [1], the Troponin plasma levels result was “elevated troponin plasma levels”.
As for `CCCOC(=O)CNC(=O)[C@@H]1C[C@H](C)CC[C@H]1C(C)C` [GlyOnPr, [((1R,2S,5R)-2-isopropyl-5-methyl-cyclohexanecarbonyl)-amino]-acetic acid n-propyl ester], the “Relief of stuffiness and breathing” value in the data set with ostiomeatal complex [2] was “provided relief”. In addition, the “Oropharyngeal Surface” value in the data set with oropharyngeal surface is given as 0. The “Philtrum Skin” value came out at 42 min in the data set with philtrum skin (Table 6, cooling duration, keratinized skin) and 42 min with philtrum skin (Table 7, Gly esters). Also, in the data set with oral cavity, the “Chili-Pepper Sauce Test” value was determined as 0. Also, the “Eyelids/Ocular Surface” value with ocular margins (Table 6, cooling duration, non-keratinized) amounted to 54 min. In the data set on ocular margins (Table 7, Gly esters), the “Ocular Surface” value stood at 54 min. Also, the “Sensory effects after delivery into the nasal cavity” value in the data set with nasal cavity was “About the same duration of action as GlyOiPr, but less refreshing”.
In the case of `COc1ccc(NC(=O)[C@@H]2C[C@H](C)CC[C@H]2C(C)C)cc1` [WS-12, (1R,2S,5R)-2-isopropyl-N-(4-methoxyphenyl)-5-methyl-cyclohexanecarboxamide], the “Octanol/water partition coefficient among the p-menthanecarboxamides” value in data set [3] is reported as “highest”. In addition, the “Effect on dry mouth symptoms” value in the data set on ostiomeatal complex [4] (WS-12 10 mg/ml in 1% ethanol and 2% polysorbate 80, 5-sec nebulization once before sleep) is given as “dry mouth symptoms disappeared after three days of use”. Moreover, the “Effect with manual spraying” value in the data set on ostiomeatal complex [4] (manual sprayer instead of electronically powered nebulizer) is reported as “does not work well”.
For `CC(C)[C@@H]1CC[C@@H](C)C[C@H]1O` [l-menthol, (1R,2S,5R)-2-isopropyl-5-methyl-cyclohexanol [(−)-menthol], reference compound], the MUC5AC secretion entry in data set [5] was “stimulates MUC5AC”. The “Potency on TRPA1 compared with TRPM8” value on TRPA1 was “interacts with TRPA1 at a greater potency than TRPM8”. Moreover, in the data set on nasal cavity, the “Cooling duration in the nasal cavity” value was around 7 min and the “Sensory effects after delivery into the nasal cavity” value is recorded as “Strong cool, clear breathing. Eye irritant, causes rhinorrehea”. Also, the “Activity on TRPM8 transfected cells” value at hTRPM8 channel is given as “active”.
